Data as given in patent publication EP2371816A1, “Aminocyclohexenone, their preparation and use as medicament against oxidative stress” (ABIOGEN PHARMA S.p.A., priority 2010, dated 2011).

How the values were obtained:
[1] = test system: C6 cells (rat glioma); assay: In vitro inhibition of CHP-induced oxidative stress (DCF fluorescence) in C6 cells; type: cell-based; settings: 500 µM CHP, compound 4, 20, 100 and 500 µM, 30 minutes at 37 °C, range given for both cell lines together
Description: (§1) The method used was essentially the one reported by Rüweler M. et al. ("Inhibition of peroxide-induced radical generation by plant polyphenols in C6 astroglioma cells" (2008) Toxicol in vitro 22, 1377-81), with a few minor modifications.
(§2) The cells were seeded in phenol-red free DMEM (Sigma Aldrich) into 96-well plates with 5% FBS and 20 mM HEPES at a density of 40,000 cells/well. After 48 hours, the medium was substituted by HBSS (Hanks' Balanced Salt Solution, Sigma) containing 10 µM of dihydro-2',7'-dichlorofluorescein diacetate (H2DCF-DA, Sigma Aldrich) and incubated in darkness for 30 minutes at 37 °C, in order to load the cells with fluorescent dye. H2DCF-DA was hydrolyzed enzymatically by the intracellular esterases to form non-fluorescent H2DCF, which was then rapidly oxidized to form 2',7'-dichlorofluorescein (DCF) being highly fluorescent in the presence of reactive species (RS). The intensity of DCF fluorescence is directly proportional to the amount of RS formed.
(§3) After carrying out two washes, the cells were exposed to 500 µM of CHP and various concentrations (4, 20, 100 and 500 µM) of the compounds of the invention for 30 minutes at 37 °C. Fluorescence was then measured, after cell washing, by a microplate reader at an excitation wavelength of 485 nm and an emission wavelength of 535 nm.
(§4) Six wells per plate per concentration of test composition (compound + CHP) and per control (HBSS without CHP) were measured and 12 wells were used as reference for CHP-induced stress. In addition, each 96-well plate contained 6 wells that received the highest concentration of the tested compounds without CHP, to investigate whether the compounds of the invention alone were able to induce cellular radical formation.
(§5) When using this assay, it should be borne in mind that DCF fluorescence is a generalized indicator of oxidative stress rather than of any particular reactive species, i.e. it is not a direct assay for H2O2 or other reactive species (Halliwell B, Whiteman M. (2004) "Measuring reactive species and oxidative damage in vivo and in cell culture: how should you do it and what do the results mean?" Br. J. Pharmacol. 142 231-255). Therefore, when an increase in DCF fluorescence induced by exposure of cells to CHP was measured, as was undertaken in these assays, it was not possible to deduce which reactive species was responsible. Inhibition of CHP-induced fluorescence was evaluated by means of different concentrations of the compounds of the invention and comparative compounds such as Trolox and edaravone.

[2] = test system: BAEC cells (bovine aortic endothelial); assay: In vitro inhibition of CHP-induced oxidative stress (DCF fluorescence) in BAEC cells; type: cell-based; settings: 500 µM CHP, compound 4, 20, 100 and 500 µM, 30 minutes at 37 °C, range given for both cell lines together
Description: as §1, §2, §3, §4, §5

[3] = TEAC method (Trolox Equivalent Antioxidant Capacity Assay); settings: ratio of gradient to gradient of reference (trolox); 37 °C, 650 nm, pH 4.5
Excerpt: This assay is used to measure the total antioxidant activity of pure substances, biological fluids and plant compounds and is based on the reaction of antioxidants with the cation radical ABTS^˙+ (2,2'-azinobis(3-ethylbenzothiazolin-6-sulphonate)). This cation radical is metastable and has to be generated just before the experiment by reacting ABTS with hydrogen peroxide in the presence of HRP.
This radical can be reduced, with consequent loss of absorbance, by an antioxidant whose scavenging capacity can be measured spectrophotometrically at 650 nm. The test is carried out at 37 °C and the results are obtained from a comparison with Trolox (a synthetic antioxidant and hydrophilic analogue of vitamin E).
The ABTS solution S1 was prepared as follows: • 20 mg of ABTS were added to 50 mM of citric acid buffer (40 ml) at pH=4.5 and to the resulting solution there was added an aqueous solution of HRP (4.4 mg, 400 µl) and an aqueous solution of H2O2 (10 µl of a 30% solution diluted with 16.3 ml of water).
For each of the compounds (2), (6) and (7), as synthesized above, there was prepared a 600 µM solution in water, methanol or DMSO according to its solubility, as well as a Trolox solution as reference.
Each solution was diluted to produce 6 solutions each at a concentration between 25 µM and 300 µM. From each of the diluted and divided solutions, there were withdrawn 20 µl to which 200 µl of solution S1 were then added.
The decrease in absorbance of each solution thus obtained was monitored at 650 nm until a stable value was reached (about 90 minutes).
For each set of 6 solutions and for the reference trolox solution, the absorption was given in graph form as a function of the amount of compound (nmol) in the solution. The gradient of the straight line obtained by linear interpolation was determined according to the least squares method. The TEAC value of each compound of the invention is given in the table below and is expressed as the ratio between the gradient of the resulting straight line and the gradient of the reference (trolox) straight line.

SMILES | Inhibition of CHP-induced fluorescence [1] | Inhibition of CHP-induced fluorescence [2] | TEAC [3]
CC1(C)CC(=O)C=C(NCCN2CCCCC2)C1 [(1), 5,5-dimethyl-3-(2-(piperidin-1-yl)ethylamino)cyclohex-2-enone] | effective | effective | 
O=C1C=C(NCCN2CCCCC2)CC(c2ccccc2)C1 (centres unmarked) [(3), 5-phenyl-3-(2-(piperidin-1-yl)ethylamino)cyclohex-2-enone] | effective | effective | 
CC1(C)CC(=O)C=C(NN2CCCCC2)C1 [(6), 5,5-dimethyl-3-(piperidin-1-ylamino)cyclohex-2-enone] |  |  | 1.2
